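These data come from cells grown in 96-well plates and exposed to compound for 48 hours at five concentrations. TGI marks complete inhibition of growth.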
What was measured:
Assay in all cases: NCI tumour cell line growth inhibition, 48 h
SK-MEL-28 melanoma = tested on: SK-MEL-28 melanoma
NCI-H522 lung = tested on: NCI-H522 lung
NCI-H226 lung = tested on: NCI-H226 lung
786-0 renal = tested on: 786-0 renal
M14 melanoma = tested on: M14 melanoma
HCC-2998 colon = tested on: HCC-2998 colon
MDA-MB-231 breast = tested on: MDA-MB-231 breast
HOP-62 NSCLC = tested on: HOP-62 NSCLC
HT29 colon = tested on: HT29 colon
SF-539 CNS = tested on: SF-539 CNS
HCT-15 colon = tested on: HCT-15 colon
BT-549 breast = tested on: BT-549 breast
MALME-3M melanoma = tested on: MALME-3M melanoma
MCF7 breast = tested on: MCF7 breast
SK-MEL-5 melanoma = tested on: SK-MEL-5 melanoma
SW-620 colon = tested on: SW-620 colon
HL-60(TB) leukemia = tested on: HL-60(TB) leukemia
NCI-H460 lung = tested on: NCI-H460 lung
SK-MEL-2 melanoma = tested on: SK-MEL-2 melanoma
KM12 colon = tested on: KM12 colon
LOX IMVI melanoma = tested on: LOX IMVI melanoma
SNB-75 CNS = tested on: SNB-75 CNS
DU-145 prostate = tested on: DU-145 prostate
K-562 leukemia = tested on: K-562 leukemia
TK-10 renal = tested on: TK-10 renal
U251 CNS = tested on: U251 CNS
RPMI-8226 leukemia = tested on: RPMI-8226 leukemia
UO-31 renal = tested on: UO-31 renal
OVCAR-4 ovarian = tested on: OVCAR-4 ovarian
OVCAR-5 ovarian = tested on: OVCAR-5 ovarian
IGROV1 ovarian = tested on: IGROV1 ovarian
RXF 393 renal = tested on: RXF 393 renal
SR leukemia = tested on: SR leukemia
SF-268 CNS = tested on: SF-268 CNS
OVCAR-8 ovarian = tested on: OVCAR-8 ovarian
NCI-H23 lung = tested on: NCI-H23 lung
SNB-19 CNS = tested on: SNB-19 CNS
MDA-N = tested on: MDA-N
OVCAR-3 ovarian = tested on: OVCAR-3 ovarian
T-47D breast = tested on: T-47D breast
SN12C renal = tested on: SN12C renal
ACHN renal = tested on: ACHN renal
HCT-116 colon = tested on: HCT-116 colon
COLO 205 colon = tested on: COLO 205 colon
MDA-MB-435 = tested on: MDA-MB-435
MOLT-4 leukemia = tested on: MOLT-4 leukemia
UACC-257 melanoma = tested on: UACC-257 melanoma
SK-OV-3 ovarian = tested on: SK-OV-3 ovarian
UACC-62 melanoma = tested on: UACC-62 melanoma
HS 578T breast = tested on: HS 578T breast
CAKI-1 renal = tested on: CAKI-1 renal
SF-295 CNS = tested on: SF-295 CNS
NCI/ADR-RES ovarian = tested on: NCI/ADR-RES ovarian
A549 NSCLC = tested on: A549 NSCLC
EKVX NSCLC = tested on: EKVX NSCLC
PC-3 prostate = tested on: PC-3 prostate
HOP-92 NSCLC = tested on: HOP-92 NSCLC

O=c1[nH]nc(-c2ccccc2)n1/N=C\CC/C=N\n1c(-c2ccccc2)n[nH]c1=O
TGI (SK-MEL-28 melanoma): > 54.6 µM | TGI (NCI-H522 lung): > 100 µM | TGI (NCI-H226 lung): > 72.2 µM | TGI (786-0 renal): 75.9 µM | TGI (M14 melanoma): 47.1 µM | TGI (HCC-2998 colon): > 100 µM | TGI (MDA-MB-231 breast): > 81.4 µM | TGI (HOP-62 NSCLC): 98.7 µM | TGI (HT29 colon): 42.5 µM | TGI (SF-539 CNS): > 69.5 µM | TGI (HCT-15 colon): 49.9 µM | TGI (BT-549 breast): 60.9 µM | TGI (MALME-3M melanoma): 72.4 µM | TGI (MCF7 breast): > 92.2 µM | TGI (SK-MEL-5 melanoma): > 56 µM | TGI (SW-620 colon): > 100 µM | TGI (HL-60(TB) leukemia): > 100 µM | TGI (NCI-H460 lung): > 74.5 µM | TGI (SK-MEL-2 melanoma): 50.9 µM | TGI (KM12 colon): > 100 µM | TGI (LOX IMVI melanoma): 27.1 µM | TGI (SNB-75 CNS): > 100 µM | TGI (DU-145 prostate): > 100 µM | TGI (K-562 leukemia): > 100 µM | TGI (TK-10 renal): > 100 µM | TGI (U251 CNS): > 100 µM | TGI (RPMI-8226 leukemia): 99.8 µM | TGI (UO-31 renal): > 100 µM | TGI (OVCAR-4 ovarian): > 100 µM | TGI (OVCAR-5 ovarian): > 100 µM | TGI (IGROV1 ovarian): > 85.2 µM | TGI (RXF 393 renal): > 100 µM | TGI (SR leukemia): > 94.8 µM | TGI (SF-268 CNS): > 71 µM | TGI (OVCAR-8 ovarian): > 86.9 µM | TGI (NCI-H23 lung): 21.7 µM | TGI (SNB-19 CNS): > 100 µM | TGI (MDA-N): 44.3 µM | TGI (OVCAR-3 ovarian): 51.8 µM | TGI (T-47D breast): 99 µM | TGI (SN12C renal): 47 µM | TGI (ACHN renal): > 100 µM | TGI (HCT-116 colon): > 66.7 µM | TGI (COLO 205 colon): > 100 µM | TGI (MDA-MB-435): 60.8 µM | TGI (MOLT-4 leukemia): > 31.6 µM | TGI (UACC-257 melanoma): > 100 µM | TGI (SK-OV-3 ovarian): > 100 µM | TGI (UACC-62 melanoma): 43.5 µM | TGI (HS 578T breast): > 83.7 µM | TGI (CAKI-1 renal): > 100 µM | TGI (SF-295 CNS): > 100 µM | TGI (NCI/ADR-RES ovarian): 96.9 µM | TGI (A549 NSCLC): > 100 µM | TGI (EKVX NSCLC): > 100 µM | TGI (PC-3 prostate): > 77.5 µM | TGI (HOP-92 NSCLC): 84.6 µM
